Laboratory results reported in patent publication US9914910B2, “Methods of preserving and protecting pancreatic beta cells and treating or preventing diabetes by inhibiting NOX-1” (Eastern Virginia Medical School, priority 2013, dated 2018).

Tests used:
[1] = tested on: INS-1 cells; test: Caspase-3 assay (pro-caspase-3 cleavage) after PIC; assay type: cell-based, rat; conditions: INS-1, PIC 4 hours, up to
Protocol: A. Caspase-3 Assay: Pro-caspase-3 cleavage was measured using a caspase-3 Assay kit (BD Pharmigen, Franklin Lakes, N.J.) per the manufacturer's instructions; fluorescence being measured (SpectraMax, Molecular Devices, Sunnyvale, Calif.) at excitation 380 nm and emission 440 nm (INS-1) or 460 nm (βTC-3, mouse).

[2] = tested on: NOX-1 gene expression in βTC-3 cells; test: PIC-induced NOX-1 gene expression (RT-PCR); assay type: cell-based, mouse; conditions: βTC-3, PIC 24 hours
Protocol: Total RNA was isolated using the RNeasy Mini Kit (Qiagen, Valencia, Calif.) and cDNA prepared using MMLV reverse transcriptase (Life Technologies) and random hexamers (Life Technologies). Jump Start Taq polymerase (Life Technologies) was used in PCR reactions. […] RT-PCR reactions were performed in triplicate (CFX96 Bio-Rad, Hercules, Calif.). Taqman primers (Life Technologies) were also used. Data was normalized to the housekeeping gene GAPDH and analyzed using the 2-ΔΔCT method.

[3] = biological target: T1, NOX-1 (Homo sapiens, UniProt Q9Y5S8); conditions: cited from earlier work
T1 sequence (Q9Y5S8 1-564): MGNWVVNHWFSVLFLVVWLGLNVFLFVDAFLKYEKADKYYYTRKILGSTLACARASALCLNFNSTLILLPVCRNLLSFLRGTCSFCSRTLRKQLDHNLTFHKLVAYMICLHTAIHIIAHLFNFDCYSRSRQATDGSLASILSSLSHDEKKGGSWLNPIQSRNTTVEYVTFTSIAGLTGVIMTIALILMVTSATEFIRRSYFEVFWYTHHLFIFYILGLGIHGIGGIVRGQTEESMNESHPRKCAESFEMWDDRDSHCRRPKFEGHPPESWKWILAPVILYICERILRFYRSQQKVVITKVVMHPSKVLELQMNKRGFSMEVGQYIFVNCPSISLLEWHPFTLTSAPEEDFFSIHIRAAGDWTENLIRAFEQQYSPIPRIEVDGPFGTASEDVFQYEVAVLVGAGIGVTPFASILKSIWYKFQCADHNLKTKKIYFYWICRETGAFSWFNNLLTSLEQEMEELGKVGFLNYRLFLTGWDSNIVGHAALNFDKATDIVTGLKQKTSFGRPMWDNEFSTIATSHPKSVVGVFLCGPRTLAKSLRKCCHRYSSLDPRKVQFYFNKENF
T1 sequence (P13498 1-195 partner): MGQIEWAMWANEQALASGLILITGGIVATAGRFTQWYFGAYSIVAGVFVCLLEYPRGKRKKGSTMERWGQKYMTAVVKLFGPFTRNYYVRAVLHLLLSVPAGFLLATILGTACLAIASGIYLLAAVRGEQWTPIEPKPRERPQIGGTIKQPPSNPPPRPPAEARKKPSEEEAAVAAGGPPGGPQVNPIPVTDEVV

Structure (SMILES): CC(=O)c1ccc2c(c1)Nc1ccccc1S2 [ML171, 2-acetylphenothiazine]
- block of PIC-induced activation of caspase-3 [1]: up to 100%±3.4%
- inhibition of PIC-induced expression of NOX-1 gene [2]: 23%
- inhibition of NOX-1 (in words) [3]: nanomolar inhibitor
- specificity for NOX-1 inhibition over NOX-2 inhibition and other NOX isoforms [3]: greater than 30 fold
